Data on one compound can be found in the NIST ThermoML archive (doi:10.1021/je400218d).

Molecules are shown by their SMILES. Numbers after ± are expanded uncertainties.

The conditions of the series: 298.15 K; 101.33 kPa; Crystal; Pycnometric method.

On to `CC1=C(C(=O)O)N2C(=O)[C@@H](NC(=O)[C@H](N)C3=CCC=CC3)[C@H]2SC1` [Cefradin], for which the molar volume stood at 0.000268 ± 1.6e-05 m3/mol.
